Experiments:
[1] = target: 3',5'-cyclic-AMP phosphodiesterase 4B (Homo sapiens, UniProt Q07343); assay: Inhibition of human recombinant PDE4B1 expressed in insect Sf9 cells by fluorescence capillary-electrophoresis assay
Phosphodiesterase 4 [2] = target: T1, Phosphodiesterase 4 (Homo sapiens, UniProt P27815+Q08499+Q07343+Q08493); assay: Inhibition of PDE4 in human SHSY-5Y cells assessed as suppression of cAMP hydrolysis by HTRF assay in presence of dye d2 labelled cAMP; assay type: cell-based; conditions: sh-sy5y
Phosphodiesterase 4 [3] = target: T1, Phosphodiesterase 4; assay: Inhibition of PDE4 in human SHSY-5Y cells assessed as suppression of cAMP hydrolysis at 10 uM by HTRF assay in presence of dye d2 labelled cAMP; assay type: cell-based; conditions: SH-SY5Y
[4] = target: cGMP-inhibited 3',5'-cyclic phosphodiesterase 3A (Homo sapiens, UniProt Q14432); assay: Inhibition of human recombinant PDE3 by fluorescence capillary-electrophoresis assay
cGMP-inhibited 3',5'-cyclic phosphodiesterase 3A, sequence (Q14432 whole entry): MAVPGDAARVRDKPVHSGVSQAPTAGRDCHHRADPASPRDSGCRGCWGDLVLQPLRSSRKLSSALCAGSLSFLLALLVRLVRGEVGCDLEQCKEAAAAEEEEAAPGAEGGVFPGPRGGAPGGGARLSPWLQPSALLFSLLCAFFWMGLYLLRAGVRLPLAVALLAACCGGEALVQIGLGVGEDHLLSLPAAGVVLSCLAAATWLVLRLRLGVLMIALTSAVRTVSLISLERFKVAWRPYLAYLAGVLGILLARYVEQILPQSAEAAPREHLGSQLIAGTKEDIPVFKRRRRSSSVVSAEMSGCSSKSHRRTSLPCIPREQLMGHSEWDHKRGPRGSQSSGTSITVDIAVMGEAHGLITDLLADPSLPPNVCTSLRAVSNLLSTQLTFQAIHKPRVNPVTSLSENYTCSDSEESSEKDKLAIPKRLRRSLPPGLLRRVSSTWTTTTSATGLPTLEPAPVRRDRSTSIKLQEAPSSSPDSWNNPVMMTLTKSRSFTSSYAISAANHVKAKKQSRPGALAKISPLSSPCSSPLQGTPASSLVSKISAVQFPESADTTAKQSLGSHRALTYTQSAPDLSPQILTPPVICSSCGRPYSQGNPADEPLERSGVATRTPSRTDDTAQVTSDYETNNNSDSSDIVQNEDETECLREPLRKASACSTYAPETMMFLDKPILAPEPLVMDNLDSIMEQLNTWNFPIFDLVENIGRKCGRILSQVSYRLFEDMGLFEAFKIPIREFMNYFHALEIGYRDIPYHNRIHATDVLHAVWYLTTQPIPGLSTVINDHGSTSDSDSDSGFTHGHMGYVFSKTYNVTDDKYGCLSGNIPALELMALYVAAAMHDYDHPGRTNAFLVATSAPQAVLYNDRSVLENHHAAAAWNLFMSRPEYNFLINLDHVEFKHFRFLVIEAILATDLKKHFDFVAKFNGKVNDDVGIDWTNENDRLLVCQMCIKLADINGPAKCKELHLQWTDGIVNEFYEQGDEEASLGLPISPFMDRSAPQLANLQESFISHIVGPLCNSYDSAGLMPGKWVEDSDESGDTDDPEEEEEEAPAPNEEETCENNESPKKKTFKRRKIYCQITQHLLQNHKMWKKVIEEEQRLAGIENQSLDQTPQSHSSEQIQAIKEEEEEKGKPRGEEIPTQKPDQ

3',5'-cyclic-AMP phosphodiesterase 4B, sequence (Q07343 whole entry): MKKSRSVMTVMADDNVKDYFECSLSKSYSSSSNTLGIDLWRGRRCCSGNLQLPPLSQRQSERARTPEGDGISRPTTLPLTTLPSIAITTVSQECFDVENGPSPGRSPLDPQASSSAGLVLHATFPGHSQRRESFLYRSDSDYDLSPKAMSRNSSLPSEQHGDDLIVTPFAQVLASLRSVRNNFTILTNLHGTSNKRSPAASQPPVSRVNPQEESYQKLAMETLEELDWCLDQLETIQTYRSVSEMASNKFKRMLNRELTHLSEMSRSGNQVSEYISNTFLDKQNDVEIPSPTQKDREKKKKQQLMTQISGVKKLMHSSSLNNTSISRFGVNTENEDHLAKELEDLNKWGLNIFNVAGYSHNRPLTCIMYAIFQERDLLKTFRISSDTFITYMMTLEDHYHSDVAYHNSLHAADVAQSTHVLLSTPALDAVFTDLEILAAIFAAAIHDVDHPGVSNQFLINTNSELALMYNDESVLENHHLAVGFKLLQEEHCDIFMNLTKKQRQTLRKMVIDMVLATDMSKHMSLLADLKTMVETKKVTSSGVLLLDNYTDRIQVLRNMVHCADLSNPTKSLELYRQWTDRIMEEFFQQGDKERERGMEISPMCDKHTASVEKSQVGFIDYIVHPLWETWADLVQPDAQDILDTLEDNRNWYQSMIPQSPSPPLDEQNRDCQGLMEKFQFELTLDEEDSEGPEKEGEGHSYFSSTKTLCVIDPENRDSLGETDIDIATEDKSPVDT

| Compound | IC50 [1] [nM] | IC50 (Phosphodiesterase 4 [2]) [nM] | inhibition (Phosphodiesterase 4 [3]) [%] | IC50 [4] [nM] |
| --- | --- | --- | --- | --- |
| Cc1c(S(=O)(=O)c2cccc(C(=O)N(C)C)c2)nn2c(Nc3cc(Cl)cc(Cl)c3)c(C(N)=O)cnc12 | 0.2 | 130 |  |  |
| CCc1cnn2c(Nc3cccc(OC)c3)c(C(N)=O)cnc12 | 38 | 5400 |  |  |
| COc1cccc(Nc2c(C(N)=O)cnc3c(C)c(S(=O)(=O)c4ccccc4)nn23)c1 | 4 | 243 |  |  |
| COc1cccc(Nc2c3c(nc4c(C)c(S(C)(=O)=O)nn24)CCNC3=O)c1 | 0.1 | 8 |  |  |
| CNC(=O)c1cnc2c(C)cnn2c1Nc1cccc(OC)c1 | > 10000 | > 10000 |  |  |
| Cc1cnn2c(Nc3cc(Cl)cc(Cl)c3)c(C(N)=O)cnc12 | 16 | > 10000 |  |  |
| COc1cccc(Nc2c(C(N)=O)cnc3c(C)cnn23)c1 | 165 | > 10000 | < 50 | > 10000 |
| COc1cccc(Nc2c(C(N)=O)cnc3c(C)c(S(C)(=O)=O)nn23)c1 | 26 | 1820 |  |  |
| Cc1cnn2c(Nc3ccccc3)c(C(N)=O)cnc12 | 1950 | > 10000 |  |  |
| Cc1c(S(C)(=O)=O)nn2c(Nc3cc(Cl)cc(Cl)c3)c(C(N)=O)cnc12 | 7 | 1500 |  |  |

The next lines start with the values.

| IC50 [1] [nM] | IC50 (Phosphodiesterase 4 [2]) [nM] | inhibition (Phosphodiesterase 4 [3]) [%] | IC50 [4] [nM] | Compound |
| --- | --- | --- | --- | --- |
| 5 | 270 |  |  | COc1cccc(Nc2c(C(N)=O)cnc3c(C(C)C)c(S(C)(=O)=O)nn23)c1 |
| 6 | 507 |  |  | CC(C)c1c(S(C)(=O)=O)nn2c(Nc3cc(Cl)cc(Cl)c3)c(C(N)=O)cnc12 |
| 7 | 5600 |  |  | Cc1c(S(=O)(=O)c2ccccc2)nn2c(Nc3cc(Cl)cc(Cl)c3)c(C(N)=O)cnc12 |
| 0.2 | 480 |  |  | CSc1nn2c(Nc3cc(Cl)cc(Cl)c3)c3c(nc2c1C)CCNC3=O |
| 0.03 | 5 |  |  | Cc1c(S(C)(=O)=O)nn2c(Nc3cc(Cl)cc(Cl)c3)c3c(nc12)CCNC3=O |
| 0.7 | 629 |  |  | COc1cccc(Nc2c(C(N)=O)cnc3c(C)c(S(=O)(=O)c4cccc(C(=O)N(C)C)c4)nn23)c1 |
